# Assay results published in patent publication US10047051B2, “Substituted pyridines and method of use” (AbbVie S.á{acute over (.)}r.l., priority 2015, dated 2018).
# Legend:
# Format in all cases: cell-based
# CFTR ΔF508 mutant = molecular target: T1, CFTR ΔF508 mutant (Homo sapiens, UniProt P13569, DEL508-508); test: YFP-halide influx assay for the CFTR-ΔF508 mutation (CFBE41o- cells); conditions: forskolin 10.67 μM; for EC50: from (1−F/F0) vs concentration plot
# T1 construct: expressed in transfected cells; host or cells: CFBE41o- cells, adenoviral transduction
# Outline: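 CFBE41o- cells transduced with adenovirus expressing CFTR ΔF508 and halide-sensitive YFP H148Q/I152L/F47L, then held 24 h at 27° C or with a CFTR modulator 24 h at 37° C. Iodide-induced quench recorded 2 min; EC50 from (1−F/F0) at 36 s versus concentration.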
# CFTR-G178R = molecular target: T2, CFTR-G178R (Homo sapiens, UniProt P13569, G178R); test: YFP-halide influx assay for the CFTR-G178R
# T2 construct: expressed in transfected cells
# Excerpt: (§1) The YFP halide influx assay measured the functionality of the cystic fibrosis Transmembrane Conductance regulator (CFTR) channels. The assay was used to evaluate the capacity of compounds to increase the channel opening of existing mutant CFTR channels in the membrane. It makes use of the observation that the yellow fluorescent protein (YFP) variant YFP H148Q, I152L, F47L has its fluorescence substantially quenched by halide ions like Cl^− and I^− (Galietta, L. J. V., Haggie, P. M., Verkman, A. S., 2001. Green fluorescent protein-based halide indicators with improved chloride and iodide affinities. FEBS Lett. 499, 220-224. doi:10.1016/S0014-5793(01)02561-3).
# (§2) For this purpose, HEK293-cells were seeded in 96 well plates. During seeding, the cells were reverse-transfected with plasmid vectors that direct the expression of the CFTR G551D mutant and of the YFP reporter. Cells were incubated at 37° C., 5% CO2 for 24 hours so as to allow for sufficient expression of the CFTR protein.
# (§3) The I^−-induced quenching of fluorescence was recorded immediately after injection of I^− for 7 seconds. The capacity of a compound to increase the channel opening was directly correlated with the decrease in fluorescence, and was expressed as (1−(fluorescence after 7 seconds (F)/fluorescence before injection (F0))) and an EC50 was derived from a (1−F/F0) vs compound concentration plot.
# (§4) Similar YHA assays were developed for other channel gating defective or channel conductance defective CFTR mutants to determine effect of compound on channel activity. Examples of mutants are G178R, G1349D, S549N, R117H, R334W. This assay is also used for additional class I CFTR mutants, including G542X, W1282X; class II mutants including N1303K, and for class III mutants including S1251N; or wild-type CFTR.
# CFTR-R117H = molecular target: T3, CFTR-R117H (Homo sapiens, UniProt P13569, R117H); test: YFP-halide influx assay for the CFTR-R117H
# T3 construct: expressed in transfected cells
# Excerpt: as §1, §2, §3, §4
# CFTR-G1349D = molecular target: T4, CFTR-G1349D (Homo sapiens, UniProt P13569, G1349D); test: YFP-halide influx assay for the CFTR-G1349D
# T4 construct: expressed in transfected cells
# Excerpt: as §1, §2, §3, §4
# CFTR-S549N = molecular target: T5, CFTR-S549N (Homo sapiens, UniProt P13569, S549N); test: YFP-halide influx assay for the CFTR-S549N; design: % Activation: concentration or dose not given beside the values
# T5 construct: expressed in transfected cells
# Excerpt: as §1, §2, §3, §4
# CFTR G551D mutant = molecular target: T6, CFTR G551D mutant (Homo sapiens, UniProt P13569, G551D); test: YFP-halide influx assay for the CFTR-G551D mutation (HEK293 cells); conditions: forskolin 10.67 μM
# T6 construct: expressed in transfected cells; host or cells: HEK293 cells, reverse transfection with plasmids
# Outline: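 HEK293 cells reverse-transfected with CFTR G551D and halide-sensitive YFP (H148Q/I152L/F47L), expressed 24 h at 37 °C. YFP fluorescence quenching recorded for 7 s after I⁻ injection. Response = 1−F/F0; EC50 derived from 1−F/F0 vs compound concentration.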
# T1 sequence (P13569 with tags, fused parts or gaps DEL508-508): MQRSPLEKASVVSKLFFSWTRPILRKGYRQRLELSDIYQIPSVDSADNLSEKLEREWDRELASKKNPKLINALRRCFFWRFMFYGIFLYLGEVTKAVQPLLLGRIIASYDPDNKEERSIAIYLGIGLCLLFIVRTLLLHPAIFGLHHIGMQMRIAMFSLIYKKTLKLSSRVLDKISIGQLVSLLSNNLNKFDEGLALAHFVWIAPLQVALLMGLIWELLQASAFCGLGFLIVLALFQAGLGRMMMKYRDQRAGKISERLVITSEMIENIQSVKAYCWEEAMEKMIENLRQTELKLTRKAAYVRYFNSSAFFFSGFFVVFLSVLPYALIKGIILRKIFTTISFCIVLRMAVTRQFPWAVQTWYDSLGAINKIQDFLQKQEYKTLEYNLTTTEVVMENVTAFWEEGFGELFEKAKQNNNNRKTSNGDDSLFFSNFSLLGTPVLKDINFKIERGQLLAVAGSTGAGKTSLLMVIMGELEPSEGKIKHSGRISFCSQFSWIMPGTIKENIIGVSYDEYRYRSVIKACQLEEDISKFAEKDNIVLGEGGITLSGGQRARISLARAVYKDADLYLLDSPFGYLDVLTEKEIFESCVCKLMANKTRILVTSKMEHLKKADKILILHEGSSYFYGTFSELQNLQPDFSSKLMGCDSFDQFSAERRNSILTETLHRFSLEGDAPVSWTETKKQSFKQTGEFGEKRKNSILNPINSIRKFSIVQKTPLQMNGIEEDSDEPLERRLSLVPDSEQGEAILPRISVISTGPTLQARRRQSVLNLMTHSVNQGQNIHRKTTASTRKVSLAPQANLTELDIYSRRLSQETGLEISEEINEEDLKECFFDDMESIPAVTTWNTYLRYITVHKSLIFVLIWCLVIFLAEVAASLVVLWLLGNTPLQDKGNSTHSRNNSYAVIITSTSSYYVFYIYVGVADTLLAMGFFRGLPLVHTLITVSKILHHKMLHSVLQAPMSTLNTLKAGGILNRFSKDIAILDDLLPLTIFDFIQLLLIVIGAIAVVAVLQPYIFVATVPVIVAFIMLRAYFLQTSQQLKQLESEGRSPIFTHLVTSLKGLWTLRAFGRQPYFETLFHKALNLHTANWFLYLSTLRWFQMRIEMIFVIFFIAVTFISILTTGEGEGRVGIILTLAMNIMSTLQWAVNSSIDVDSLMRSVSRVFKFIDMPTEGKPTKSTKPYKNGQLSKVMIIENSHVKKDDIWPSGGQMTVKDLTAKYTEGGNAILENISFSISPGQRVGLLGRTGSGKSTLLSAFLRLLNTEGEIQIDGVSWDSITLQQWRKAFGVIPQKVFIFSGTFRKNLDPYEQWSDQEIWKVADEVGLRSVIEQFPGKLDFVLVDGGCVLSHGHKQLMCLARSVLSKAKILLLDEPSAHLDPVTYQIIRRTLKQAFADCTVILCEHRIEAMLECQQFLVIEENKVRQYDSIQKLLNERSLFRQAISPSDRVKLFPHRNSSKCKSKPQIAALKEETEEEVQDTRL
# T2 sequence (P13569 whole entry G178R): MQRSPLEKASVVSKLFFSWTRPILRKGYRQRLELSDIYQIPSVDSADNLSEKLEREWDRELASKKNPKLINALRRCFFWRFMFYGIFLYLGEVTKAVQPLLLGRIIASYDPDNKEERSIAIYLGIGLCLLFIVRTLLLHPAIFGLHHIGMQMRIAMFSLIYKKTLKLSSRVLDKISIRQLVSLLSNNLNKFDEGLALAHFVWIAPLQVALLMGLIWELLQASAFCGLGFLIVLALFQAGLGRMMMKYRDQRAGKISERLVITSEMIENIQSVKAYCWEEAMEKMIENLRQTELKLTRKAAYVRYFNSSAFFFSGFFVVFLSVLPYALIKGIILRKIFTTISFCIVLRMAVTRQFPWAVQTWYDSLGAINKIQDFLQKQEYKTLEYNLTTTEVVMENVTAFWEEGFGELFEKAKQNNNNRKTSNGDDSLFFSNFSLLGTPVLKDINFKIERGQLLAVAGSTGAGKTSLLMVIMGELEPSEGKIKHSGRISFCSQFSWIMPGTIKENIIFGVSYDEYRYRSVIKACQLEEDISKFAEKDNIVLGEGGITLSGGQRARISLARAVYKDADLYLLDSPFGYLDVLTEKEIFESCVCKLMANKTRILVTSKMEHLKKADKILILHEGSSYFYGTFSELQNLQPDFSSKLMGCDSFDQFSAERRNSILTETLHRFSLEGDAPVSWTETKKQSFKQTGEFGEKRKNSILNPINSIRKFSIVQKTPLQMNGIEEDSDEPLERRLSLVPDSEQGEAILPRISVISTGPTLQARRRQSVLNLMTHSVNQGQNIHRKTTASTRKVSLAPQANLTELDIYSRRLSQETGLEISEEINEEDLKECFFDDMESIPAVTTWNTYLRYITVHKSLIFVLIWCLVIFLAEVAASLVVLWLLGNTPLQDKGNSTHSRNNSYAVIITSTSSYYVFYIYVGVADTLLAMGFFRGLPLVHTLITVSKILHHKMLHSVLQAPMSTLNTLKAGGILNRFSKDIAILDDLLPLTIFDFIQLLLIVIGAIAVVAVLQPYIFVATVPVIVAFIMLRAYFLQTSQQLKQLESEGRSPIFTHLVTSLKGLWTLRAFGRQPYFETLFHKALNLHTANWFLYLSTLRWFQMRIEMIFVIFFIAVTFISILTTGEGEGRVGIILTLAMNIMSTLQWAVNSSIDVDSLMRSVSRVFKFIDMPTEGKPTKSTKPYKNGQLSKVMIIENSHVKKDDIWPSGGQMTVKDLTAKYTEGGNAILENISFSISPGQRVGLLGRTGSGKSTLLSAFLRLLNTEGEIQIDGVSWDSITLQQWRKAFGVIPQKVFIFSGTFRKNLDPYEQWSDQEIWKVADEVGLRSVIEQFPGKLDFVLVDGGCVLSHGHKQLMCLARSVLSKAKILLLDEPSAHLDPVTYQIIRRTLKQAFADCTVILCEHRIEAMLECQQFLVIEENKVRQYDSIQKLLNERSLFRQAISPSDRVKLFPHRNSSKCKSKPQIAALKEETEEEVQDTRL
# T6 sequence (P13569 whole entry G551D): as the sequence (P13569 whole entry G178R) above, with R178G, G551D counted along it
# T3 sequence (P13569 whole entry R117H): as the sequence (P13569 whole entry G178R) above, with R117H, R178G counted along it
# T5 sequence (P13569 whole entry S549N): as the sequence (P13569 whole entry G178R) above, with R178G, S549N counted along it
# T4 sequence (P13569 whole entry G1349D): as the sequence (P13569 whole entry G178R) above, with R178G, G1349D counted along it
% Activation (CFTR ΔF508 mutant) [%],EC50 (CFTR ΔF508 mutant) [nM],% Activation (CFTR-G178R) [%],EC50 (CFTR-G178R) [nM],% Activation (CFTR-R117H) [%],EC50 (CFTR-R117H) [nM],% Activation (CFTR-G1349D) [%],EC50 (CFTR-G1349D) [nM],% Activation (CFTR-S549N) [%],EC50 (CFTR-S549N) [nM],% Activation (CFTR G551D mutant) [%],EC50 (CFTR G551D mutant) [nM],SMILES
122.0,3.1,78.08,32.5,89.91,59.5,85.79,55.3,98.52,139,69.3,332,"Nc1cc(S(=O)(=O)c2ccc(OC(F)(F)F)cc2)cnc1C(=O)N1CC(O)(C2CC2)C1 [Compound 86, (3-amino-5-{[4-(trifluoromethoxy)phenyl]sulfonyl}pyridin-2-yl)(3-cyclopropyl-3-hydroxyazetidin-1-yl)methanone]"
102.1,3.6,104.0,77.8,103.7,253,96.0,97.9,104.0,80.4,91.4,430,"COC[C@H](O)CNC(=O)c1ncc(S(=O)(=O)c2ccccc2OC(F)(F)F)cc1N [Compound 177, 3-amino-N-[(2R)-2-hydroxy-3-methoxypropyl]-5-{[2-(trifluoromethoxy)phenyl]sulfonyl}pyridine-2-carboxamide]"
102.5,4.3,97.2,149,126.0,225,91.0,173,105.0,74.4,92.6,1120,"Nc1cc(S(=O)(=O)c2ccc(F)cc2)c(-c2ccc(F)cc2)nc1C(=O)NC[C@@H](O)C(F)(F)F [Compound 259, 3-amino-6-(4-fluorophenyl)-5-[(4-fluorophenyl)sulfonyl]-N-[(2R)-3,3,3-trifluoro-2-hydroxypropyl]pyridine-2-carboxamide]"
98.6,42.8,81.8,514,87.1,628,92.9,543,82.2,735,62.3,1390,"Nc1cc(S(=O)(=O)c2ccc(OC(F)(F)F)cc2)cnc1C(=O)N[C@@H]1COCC[C@@H]1O (racemic) [Compound 33, rac-3-amino-N-[(3R,4S)-4-hydroxytetrahydro-2H-pyran-3-yl]-5-{[4-(trifluoromethoxy)phenyl]sulfonyl}pyridine-2-carboxamide]"
99.5,3.3,74.5,31.3,103.1,22.2,83.08,61.4,88.09,44.3,48.9,256,"Nc1cc(S(=O)(=O)c2ccc(OC(F)(F)F)cc2)cnc1C(=O)N1CC(O)(C(F)(F)F)C1 [Compound 79, (3-amino-5-{[4-(trifluoromethoxy)phenyl]sulfonyl}pyridin-2-yl)[3-hydroxy-3-(trifluoromethyl)azetidin-1-yl]methanone]"
102.0,3.2,95.08,81.1,111.5,408,98.43,119,108.5,144,95.1,946,"COCC(O)CNC(=O)c1ncc(S(=O)(=O)c2ccccc2OC(F)(F)F)cc1N (stereo not drawn) [Compound 80, 3-amino-N-(2-hydroxy-3-methoxypropyl)-5-{[2-(trifluoromethoxy)phenyl]sulfonyl}pyridine-2-carboxamide]"
106.0,2.7,106.7,84.7,128.3,1050,92.74,102,106.9,122,89.9,795,"C[C@H](O)CNC(=O)c1ncc(S(=O)(=O)c2ccccc2OC(F)(F)F)cc1N [Compound 82, 3-amino-N-[(2S)-2-hydroxypropyl]-5-{[2-(trifluoromethoxy)phenyl]sulfonyl}pyridine-2-carboxamide]"
110.0,17.2,84.3,348,100.0,866,86.8,511,91.4,567,65.0,839,"Nc1cc(S(=O)(=O)c2ccc(OC(F)(F)F)cc2)cnc1C(=O)N[C@@H]1COC[C@H]1O (racemic) [Compound 74, rac-3-amino-N-[(3R,4S)-4-hydroxytetrahydrofuran-3-yl]-5-{[4-(trifluoromethoxy)phenyl]sulfonyl}pyridine-2-carboxamide]"
103.3,52.3,98.4,305,91.3,442,83.9,129,88.2,256,59.2,450,"Nc1cc(S(=O)(=O)c2ccc(C(F)(F)F)cc2)cnc1C(=O)N1CC(OCC(F)F)C1 [Compound 231, (3-amino-5-{[4-(trifluoromethyl)phenyl]sulfonyl}pyridin-2-yl)[3-(2,2-difluoroethoxy)azetidin-1-yl]methanone]"
93.4,1,79.1,12.7,111.0,22.7,72.8,29.5,92.0,25.7,46.0,69.4,"Nc1cc(S(=O)(=O)c2ccc(F)cc2)cnc1C(=O)N1CC(O)(C(F)(F)F)C1 [Compound 176, {3-amino-5-[(4-fluorophenyl)sulfonyl]pyridin-2-yl}[3-hydroxy-3-(trifluoromethyl)azetidin-1-yl]methanone]"
103.4,36,63.9,933,92.1,765,62.9,1350,55.9,401,51.8,3030,"Nc1cc(S(=O)(=O)c2ccc(C(F)(F)F)cc2)cnc1C(=O)NCCO [Compound 217, 3-amino-N-(2-hydroxyethyl)-5-{[4-(trifluoromethyl)phenyl]sulfonyl}pyridine-2-carboxamide]"
